Like-named read-outs stand apart in the source and are kept apart here.

Experimental findings from US8268823B2, “Medical use of triazine derivatives” (University of Greenwich, priority 2006, dated 2012) are described below.

One assay relates to sodium channel. The assay can be described thus: veratrine-evoked uptake of [14C]guanidine into rat forebrain synaptosomes ([14C]guanidine flux). The assay is classed as biochemical. Conditions: for Hill (uptake of [14C]guanidine): slope. On the procedure: The screening strategy is designed to select compounds with appropriate sodium channel blocking activity and low side effect liability. To this end all compounds are processed through the primary sodium channel assay (veratrine-evoked uptake of [^14C]guanidine into rat forebrain synaptosomes) and IC50 values computed from generated concentration-effect curves.
Synaptosomes (heavy and light mitochondrial fraction containing synaptosomes) were prepared by transferring the forebrain (of known wet weight) to a glass Potter vessel to which 9 volumes ice-cold 0.25M sucrose had been added and homogenising, using a teflon pestle, by 8 ‘up and down strokes’ of a Braun Potter S motor driven homogeniser set to 900 rpm. The resulting homogenate was centrifuged at 1036×g at 4° for 10 min and the supernatant collected. The remaining pellet was resuspended, as above, in fresh ice-cold 0.25M sucrose and the centrifugation step repeated. The supernatant fractions were pooled and centrifuged at 40,000×g (average) at 4° for 15 min and the resulting pellet resuspended in the appropriate assay buffer at a concentration of 20-25 mg wet weight per ml appropriate assay buffer.
Both assays were carried out using 14 ml polypropylene test tubes to which a range of concentrations of the compounds under test were added.
Compounds under test were pre-incubated for 10 min at 30° in incubation buffer (50 mM pH 7.4 HEPES (adjusted to pH 7.4 with Tris base), 130 mM choline chloride, 5.5 mM D-glucose, 0.8 mm MgSO4 and 5 mM KCl) containing 7.5 mg original wet weight of tissue and 100 μg veratrine HCl in a final volume of 0.5 ml. […] A further 2×5 ml of ice-cold wash buffer was added to each tube and the vacuum filtration step repeated. The GF/C glass fibre filters were transferred to minivials and 4 ml Picofluor^40 liquid scintillant added using a Brandel™ deposit/dispense system. Radioactivity was measured using a Beckman Liquid Scintillation Counter.
(§1) Data are presented as mean±sem of number of experiments indicated in brackets.

Assay [1] concerns the target T1, DiHydroFolate Reductase (DHFR) (Rattus norvegicus, UniProt Q920D2).
T1 construct: from tissue; host or cells: rat liver homogenate supernatant (47,500 x g)
T1 sequence (Q920D2 1-187): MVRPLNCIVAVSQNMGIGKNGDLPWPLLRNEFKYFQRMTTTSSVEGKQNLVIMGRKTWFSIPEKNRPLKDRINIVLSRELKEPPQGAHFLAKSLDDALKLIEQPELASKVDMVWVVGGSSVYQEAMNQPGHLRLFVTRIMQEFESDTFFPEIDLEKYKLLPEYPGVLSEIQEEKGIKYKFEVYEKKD
The assay is described as follows: inhibition of binding of [3H]methotrexate to rat liver homogenate supernatant. Conditions: for inhibition at 20 µM: assay concentration 20 μM; for IC50: rat liver supernatant; for inhibition at 495 µM: assay concentration 495 μM. How it is done: All steps were carried out at 4° (or on ice). Freshly dissected rat liver was dissected into 0.25M ice-cold Sucrose and subsequently homogenised (U-turrax) in 50 mM pH 6.0 phosphate buffer (10 ml/g tissue) containing 15 mM Dithiothreitol. The resulting homogenate was centrifuged @ 47,500×g for 20 min and supernatant (filtered through cotton wool to remove fatty lumps) stored @-80° before use (Rothenberg et al).
The binding reaction was stopped by the addition of 50 μl of a charcoal suspension (consisting of charcoal, Bovine Serum Albumin and Dextran present in a weight ratio of 100:4:1 suspended in 50 mM pH 6.0 phosphate buffer. Samples were vortexed, allowed to stand for 2 minutes and charcoal was precipitated by microcentrifugation @ full speed for 5 min. Aliquots of clear supernatant were transferred to counting vials containing liquid scintillant for measurement of radioactivity using Liquid Scintillation Spectroscopy.
Percentage inhibition values were calculated by comparison to this value.
as §1

The mark [2] stands for this setting: Table 3, rat forebrain synaptosomes, read-out: [14C]guanidine flux Mean (IC50: μM).
Where [3] appears, read: read-out: [3H]methotrexate binding Inhibition (% @ assay conc'n).
Setting [4] is: read-out: [3H]methotrexate binding Inhibition (% @ assay conc'n), assay concentration 99 μM.
Setting [5] is: Table 8, read-out: IC50 (μM) (uptake of [14C]guanidine).

On to `N=c1nc(N)c(-c2cccc(Cl)c2Cl)nn1CC(N)=O` [Example 11], for which, in the assay on sodium channel (setting [2]), the concentration for half-maximal inhibition (IC50) – broadly, the point on the concentration scale where inhibition reaches its midpoint – was greater than 100 µM. Moreover, the inhibition – broadly, the change of the read-out against control, counted positive when it falls – at 20 µM in assay [1] (setting [3]) is -3%. Further, the inhibition at 99 µM in assay [1] (setting [4]) was -3%.
For the compound `Cc1ccc(Cn2nc(-c3cccc(Cl)c3Cl)c(N)nc2=N)cc1` [Example 12, 5(3)-Amino-6-(2,3-dichlorophenyl)-2,3(2,5)-dihydro-3(5)-imino-2-(4-methyl)phenylmethyl-1,2,4-triazine], the IC50 with sodium channel (setting [2]) worked out at 4.1 µM. In addition, the inhibition at 20 µM in assay [1] (setting [3]) is -2%. In assay [1] (setting [4]), the inhibition at 99 µM was -3%.
In the case of `N=c1nc(N)c(-c2cccc(Cl)c2Cl)nn1Cc1ccc(F)cc1` [Example 16, 5(3)-Amino-6-(2,3-dichlorophenyl)-2,3(2,5)-dihydro-3(5)-imino-2-(4-fluoro)phenylmethyl-1,2,4-triazine], in the assay with sodium channel (setting [2]), the concentration for half-maximal inhibition (IC50) is 5.1 µM. In addition, the inhibition at 10 µM in assay [1] (read-out: [3H]methotrexate binding Inhibition (% @ assay conc'n), assay concentration 10 μM) is -3%. For the same compound, the inhibition at 99 µM in assay [1] (setting [4]) was -3%.
`N=c1nc(N)c(-c2cccc(Cl)c2Cl)nn1Cc1cccc(Cl)c1` [Example 20, 5(3)-Amino-6-(2,3-dichlorophenyl)-2,3(2,5)-dihydro-3(5)-imino-2-(3-chloro)phenylmethyl-1,2,4-triazine]: the half-maximal inhibitory concentration (IC50) with sodium channel (setting [2]) came to 3.5 µM. Moreover, the results for the “[3H]methotrexate binding Inhibition (% @ assay conc'n)” value in assay [1] (assay concentration 9 μM) and in assay [1] (assay concentration 99 μM) were −4% and −7%, respectively.
On to `N=c1nc(N)c(-c2cccc(Cl)c2Cl)nn1Cc1ccc(Cl)cc1` [Example 21, 5(3)-Amino-6-(2,3-dichlorophenyl)-2,3(2,5)-dihydro-3(5)-imino-2-(4-chloro)phenylmethyl-1,2,4-triazine], for which the concentration for half-maximal inhibition (IC50) in the assay on sodium channel (setting [2]) was 6.5 µM. Besides, the “[3H]methotrexate binding Inhibition (% @ assay conc'n)” value in assay [1] (assay concentration 10 μM) and in assay [1] (assay concentration 95 μM) was −4% in each case.
Turning to `N=c1nc(N)c(-c2cccc(Cl)c2Cl)nn1Cc1ccccc1Cl` [Example 22, 5(3)-Amino-6-(2,3-dichlorophenyl)-2,3(2,5)-dihydro-3(5)-imino-2-(2-chloro)phenylmethyl-1,2,4-triazine], the IC50 with sodium channel (setting [2]) was determined as 4.6 µM.
Take `N=c1nc(N)c(-c2cccc(Cl)c2Cl)nn1Cc1ccc(C(F)(F)F)cc1` [Example 25, 5(3)-Amino-6-(2,3-dichlorophenyl)-2,3(2,5)-dihydro-3(5)-imino-2-(4-trifluoromethyl)phenylmethyl-1,2,4-triazine]: the half-maximal inhibitory concentration (IC50) with sodium channel (setting [2]) stood at 6.2 µM.
For `N=c1nc(N)c(-c2cccc(Cl)c2Cl)nn1Cc1cccc(C(F)(F)F)c1F` [Example 26, 5(3)-Amino-6-(2,3-dichlorophenyl)-2,3(2,5)-dihydro-3(5)-imino-2-(2-fluoro-3-trifluoromethyl)phenylmethyl-1,2,4-triazine], in the assay with sodium channel (setting [2]), the IC50 is 5.3 µM.
On the same count and under the same terms, for `N=c1nc(N)c(-c2cccc(Cl)c2Cl)nn1Cc1ccc(C(N)=O)cc1` [Example 27, 4-{[5(3)-Amino-6-(2,3-dichlorophenyl)-2,3-dihydro-3(5)-imino-1,2,4-triazin-2-yl]methyl}benzamide or 5(3)-Amino-6-(2,3-dichlorophenyl)-2,3(2,5)-dihydro-3(5)-imino-2-(3-carboxamido)phenylmethyl-1,2,4-triazine] the value was 234 µM.
Still for that read-out and setting: for `N=c1nc(N)c(-c2cccc(Cl)c2Cl)nn1Cc1ccc(CO)cc1` [Example 28, 4-{[5(3)-Amino-6-(2,3-dichlorophenyl)-2,3-dihydro-3(5)-imino-1,2,4-triazin-2-yl]methyl}phenylmethanol or 5(3)-Amino-6-(2,3-dichlorophenyl)-2,3(2,5)-dihydro-3(5)-imino-2-(4-hydroxymethyl)phenylmethyl-1,2,4-triazine] the value was 49 µM.
In the case of `Nc1nnc(-c2cccc(F)c2F)c(N)n1` [Example 33, 6-(2,3-difluorophenyl)-1,2,4-triazine-3,5-diamine], the 50% inhibitory concentration (IC50) is greater than 300 µM in the assay with sodium channel (setting [2]) and 442 ± 5.1 µM in assay [1].
Consider `Nc1nnc(-c2cccc(Cl)c2F)c(N)n1` [Example 35], for which the figures for the half-maximal inhibitory concentration (IC50) (with sodium channel (setting [2]); in assay [1]) were 490 µM and 81.3 µM, respectively.
Regarding `CC(C)(C)OC(=O)N1CCC(Cn2nc(-c3cccc(Cl)c3Cl)c(N)nc2=N)CC1` [Example 37, 1,1-Dimethylethyl 4-[5(3)-Amino-6-(2,3-dichlorophenyl)-2,3(2,5)-dihydro-3(5)-imino-1,2,4-triazin-2-ylmethyl]piperidine-1-carboxylate or 5(3)-Amino-6-(2,3-dichlorophenyl)-2,3(2,5)-dihydro-3(5)-imino-2-(Bocpiperidin-4-yl)methyl-1,2,4-triazine], the half-maximal inhibitory concentration (IC50) was 12.9 µM with sodium channel (setting [2]) and greater than 300 µM in assay [1].
Turning to `Nc1nnc(-c2ccccc2)c(N)n1` [Example 43, 3,5-Diamino-6-phenyl-1,2,4-triazine], the half-inhibitory concentration (IC50) in the assay on sodium channel (setting [2]) was greater than 500 µM. In addition, the inhibition at 50 µM in assay [1] (read-out: [3H]methotrexate binding Inhibition (% @ assay conc'n), assay concentration 50 μM) was 82%.
Turning to `Nc1nnc(-c2ccc(Cl)cc2Cl)c(N)n1` [Example 44, 3,5-Diamino-6-(2,4-dichlorophenyl)-1,2,4-triazine], the values for the half-inhibitory concentration (IC50) (with sodium channel (setting [2]); in assay [1]) were 603 µM and 105 µM, respectively.
`Cn1nc(-c2ccc(Cl)cc2Cl)c(N)nc1=N` [Example 45, 5(3)-Amino-6-(2,4-dichlorophenyl)-2,3(2,5)-dihydro-3(5)-imino-2-methyl-1,2,4-triazine methanesulfonate]: in the assay on sodium channel (setting [2]), the IC50 turned out to be 87.1 µM. The inhibition at 495 µM in assay [1] (setting [3]) was -1%.
Take `Cn1nc(-c2ccccc2)c(N)nc1=N` [Example 46, 5(3)-Amino-6-phenyl-2,3(2,5)-dihydro-3(5)-imino-2-methyl-1,2,4-triazine methanesulfonate]: the IC50 with sodium channel (setting [2]) was 2290 µM; in assay [1], 288 µM.
For `CCn1nc(-c2ccccc2)c(N)nc1=N` [Example 47, 5(3)-Amino-6-phenyl-2,3(2,5)-dihydro-3(5)-imino-2-ethyl-1,2,4-triazine methanesulfonate], in the assay with sodium channel (setting [2]), the 50% inhibitory concentration (IC50) was 676 µM. Moreover, the inhibition at 495 µM in assay [1] (setting [3]) was 1%.
On to `N=c1nc(N)c(-c2cccc(Cl)c2Cl)nn1CCF` [Example 52, 5(3)-Amino-6-(2,3-dichlorophenyl)-2,3(2,5)-dihydro-3(5)-imino-2-(2-fluoroethyl)-1,2,4-triazine methanesulfonate], for which, in the assay with sodium channel (Table 8), the “pIC50 (uptake of [14C]guanidine)” value amounted to 5.00 ± 0.08 and the “Hill (uptake of [14C]guanidine)” value is 0.74. Further, in the assay with sodium channel (setting [5]), the IC50 stood at 10 µM.
Turning to `Cn1nc(-c2cc(Cl)cc(Cl)c2)c(N)nc1=N` [Example 53, 5(3)-Amino-6-(3,5-dichlorophenyl)-2,3(2,5)-dihydro-3(5)-imino-2-methyl-1,2,4-triazine methanesulfonate], in the assay with sodium channel (Table 8), the “pIC50 (uptake of [14C]guanidine)” value is recorded as 4.34 ± 0.16 and the “Hill (uptake of [14C]guanidine)” value came out at 0.73. For the same compound, in the assay with sodium channel (setting [5]), the half-maximal inhibitory concentration (IC50) was 45.7 µM.
For the compound `CCn1nc(-c2cc(Cl)cc(Cl)c2)c(N)nc1=N` [Example 54, 5(3)-Amino-6-(3,5-dichlorophenyl)-2,3(2,5)-dihydro-3(5)-imino-2-ethyl-1,2,4-triazine methanesulfonate], in the assay on sodium channel (Table 8), the “pIC50 (uptake of [14C]guanidine)” value is listed as 4.73 ± 0.11 and the “Hill (uptake of [14C]guanidine)” value is recorded as 0.76. Further, the IC50 in the assay with sodium channel (setting [5]) turned out to be 18.6 µM.
On the same counts, the results for `N=c1nc(N)c(-c2cc(Cl)cc(Cl)c2Cl)nn1CCF` [Example 55, 5(3)-Amino-6-(2,3,5-trichlorophenyl)-2,3(2,5)-dihydro-3(5)-imino-2-(2-fluoroethyl)-1,2,4-triazine methanesulfonate] are 5.20 ± 0.05, 0.79 and 6.31 µM.
`N=c1nc(N)c(-c2cc(Cl)cc(Cl)c2Cl)nn1CCC(F)(F)F` [Example 56, 5(3)-Amino-6-(2,3,5-trichlorophenyl)-2,3(2,5)-dihydro-3(5)-imino-2-(3,3,3-trifluoropropyl)-1,2,4-triazine methanesulfonate]: in the assay with sodium channel (Table 8), the “pIC50 (uptake of [14C]guanidine)” value is on record as 2.90 ± 0.20 and the “Hill (uptake of [14C]guanidine)” value was determined as 0.83. In addition, the IC50 with sodium channel (setting [5]) worked out at 1260 µM.
